Entries after “also recorded” stand apart in the source; their conditions may differ. Marks after values point to notes of the source that are not given here.
test system: S. aureus ATCC 27660; test: not given; conditions: iv, 2 doses given at 30 min and 7.5 h after infection; cited from earlier work

| Molecule | ED50 |
| --- | --- |
| Oc1ccc(-c2nc(-c3ccc(Oc4ccc(C(F)(F)F)cc4)cc3)no2)cc1 [compound 1] | ED50 = 40 mg/kg^c |

same assay, conditions: po, single dose given at 1 h after infection; cited from earlier work

| Molecule | ED50 |
| --- | --- |
| Oc1ccc(-c2nc(-c3ccc(Oc4ccc(C(F)(F)F)cc4)cc3)no2)cc1 [compound 1] | 44^a mg/kg |

test system: not given; test: not given; conditions: antibiotics on the market; cited from earlier work

| Molecule | plasma protein binding |
| --- | --- |
| CO[C@H]1/C=C/O[C@@]2(C)Oc3c(C)c(O)c4c(O)c(c(/C=N/N5CCN(C)CC5)c(O)c4c3C2=O)NC(=O)/C(C)=C\C=C\[C@H](C)[C@H](O)[C@@H](C)[C@@H](O)[C@@H](C)[C@H](OC(C)=O)[C@@H]1C [rifampicin] | > 91% |

same assay, conditions: plasma; cited from earlier work

| Molecule | plasma protein binding |
| --- | --- |
| Cc1onc(-c2ccccc2)c1C(=O)N[C@@H]1C(=O)N2[C@@H]1SC(C)(C)[C@@H]2C(=O)O [oxacillin] | > 91% |
| teicoplanin | > 91% |
| CCCCCCCCCC(=O)N[C@@H](Cc1c[nH]c2ccccc12)C(=O)N[C@H](CC(N)=O)C(=O)N[C@@H](CC(=O)O)C(=O)N[C@@H]1C(=O)NCC(=O)N[C@@H](CCCN)C(=O)N[C@@H](CC(=O)O)C(=O)N[C@H](C)C(=O)N[C@@H](CC(=O)O)C(=O)NCC(=O)N[C@H](CO)C(=O)N[C@@H]([C@H](C)CC(=O)O)C(=O)N[C@@H](CC(=O)c2ccccc2N)C(=O)O[C@@H]1C [daptomycin] | > 91% |

test system: S. aureus ATCC 29213; test: MIC determination, S. aureus ATCC 29213; conditions: S. aureus ATCC 29213 MIC screening; active = MIC ≤ 8 μg/mL

| Molecule | antibacterial activity (in words) |
| --- | --- |
| N#Cc1c[nH]nc1-c1nc(-c2ccc(Oc3ccc(C(F)(F)F)cc3)cc2)no1 [67b] | maintained good activity |
| FC(F)(F)c1ccc(Oc2ccc(-c3noc(-c4cn[nH]n4)n3)cc2)cc1 [117b] | generally abolish antibacterial activity |
| c1ccc(Oc2ccc(-c3noc(-c4ccncc4)n3)cc2)cc1 [114a] | generally abolish antibacterial activity |
| O=[N+]([O-])c1cc(-c2nc(-c3ccc(Oc4ccc(F)cc4)cc3)no2)ccc1O [91c] | failed to show activity; also recorded: abolish activity |
| O=c1[nH]c(-c2ccc(Oc3ccccc3)cc2)no1 [112a] | abolishes activity |
| Nc1ccc(-c2nc(-c3ccc(Oc4ccccc4)cc3)no2)cc1 [58a] | low MIC values |
| O=C(O)c1ccc(-c2nc(-c3ccc(Oc4ccc(F)cc4)cc3)no2)cc1 [89c] | failed to show activity; also recorded: attenuate or abrogate activity |
| [O-][n+]1ccc(-c2nc(-c3ccc(Oc4ccccc4)cc3)no2)cc1 [115a] | generally abolish antibacterial activity |
| FC(F)(F)c1ccc(Oc2ccc(-c3noc(-c4ccc(Br)cc4)n3)cc2)cc1 [81b] | loss of activity |
| Nc1cc(-c2nc(-c3ccc(Oc4ccc(C(F)(F)F)cc4)cc3)no2)cnc1O [121b] | No activity |
| NC(=O)c1ccc(-c2nc(-c3ccc(Oc4ccc(F)cc4)cc3)no2)cc1 [88c] | failed to show activity; also recorded: attenuate or abrogate activity |
| Fc1ccc(-c2nc(-c3ccc(Oc4ccccc4)cc3)no2)cc1 [80a] | loss of activity |
| O=[N+]([O-])c1cc(-c2nc(-c3ccc(Oc4ccc(C(F)(F)F)cc4)cc3)no2)cnc1O [77b] | retained good activity |
| Oc1c(F)cc(-c2nc(-c3ccc(Oc4ccc(C(F)(F)F)cc4)cc3)no2)cc1F [71b] | without significant loss of activity |
| COC(=O)c1ccc(-c2nc(-c3ccc(Oc4ccc(F)cc4)cc3)no2)cc1 [90c] | failed to show activity |
| O=[N+]([O-])c1ccc(-c2nc(-c3ccc(Oc4ccccc4)cc3)no2)cc1 [82a] | loss of activity |
| OCC#Cc1c[nH]nc1-c1nc(-c2ccc(Oc3ccc(C(F)(F)F)cc3)cc2)no1 [68b] | maintained good activity |
| CC(C)CNc1c[nH]nc1-c1nc(-c2ccc(Oc3ccc(C(F)(F)F)cc3)cc2)no1 [105b] | did not extend |
| Oc1ccccc1-c1nc(-c2ccc(Oc3ccccc3)cc2)no1 [97a] | failed to show activity |
| NS(=O)(=O)c1ccc(-c2nc(-c3ccc(Oc4ccc(C(F)(F)F)cc4)cc3)no2)cc1 [87b] | failed to show activity; also recorded: attenuate or abrogate activity |
| Cc1nc(-c2ccc(Oc3ccccc3)cc2)no1 [113a] | abolishes activity |
| FC(F)(F)c1ccc(Oc2ccc(-c3noc(-c4nc[nH]n4)n3)cc2)cc1 [116b] | generally abolish antibacterial activity |
| Nc1ccc(-c2nc(-c3ccc(Oc4ccc(F)cc4)cc3)no2)cc1 [58c] | no antibiotic activity |
| O=C(Nc1c[nH]nc1-c1nc(-c2ccc(Oc3ccc(C(F)(F)F)cc3)cc2)no1)c1ccccc1 [108b] | did not extend |
| FC(F)(F)c1ccc(Oc2ccc(-c3noc(-c4n[nH]cc4NC4CCCCC4)n3)cc2)cc1 [106b] | did not extend |
| FC(F)(F)c1ccc(Oc2ccc(-c3noc(-c4n[nH]c5ccccc45)n3)cc2)cc1 [123b] | No activity |
| Nc1ccc(-c2nc(-c3ccc(Oc4ccc(C(F)(F)F)cc4)cc3)no2)cc1F [72b] | without significant loss of activity |

| Molecule | antibacterial activity (in words) |
| --- | --- |
| CC(C)Nc1c[nH]nc1-c1nc(-c2ccc(Oc3ccccc3)cc2)no1 [65a] | active |
| Oc1ccc(-c2nc(-c3ccc(Oc4ccc(C(F)(F)F)cc4)cc3)no2)cc1O [69b] | retained activity |
| Nc1c[nH]c(-c2nc(-c3ccc(Oc4ccc(F)cc4)cc3)no2)c1 [126c] | generally abolish antibacterial activity |
| O=[N+]([O-])c1c[nH]c(-c2nc(-c3ccc(Oc4ccc(C(F)(F)F)cc4)cc3)no2)c1 [78b] | retained good activity |
| Fc1ccc(Oc2ccc(-c3noc(-c4cc[nH]c4)n3)cc2)cc1 [127c] | generally abolish antibacterial activity |
| O=C(Nc1c[nH]nc1-c1nc(-c2ccc(Oc3ccc(C(F)(F)F)cc3)cc2)no1)c1ccccn1 [109b] | did not extend |
| Oc1cccc(-c2nc(-c3ccc(Oc4ccccc4)cc3)no2)c1 [95a] | failed to show activity |
| FC(F)(F)c1ccc(Oc2ccc(-c3noc(-c4n[nH]cc4NC4CCCC4)n3)cc2)cc1 [107b] | did not extend |
| FC(F)(F)c1ccc(Oc2ccc(-c3noc(-c4c[nH]cn4)n3)cc2)cc1 [76b, 5-(1H-Imidazol-4-yl)-3-(4-(4-(trifluoromethyl)phenoxy)phenyl)-1,2,4-oxadiazole] | retained good activity |
| Nc1cncc(-c2nc(-c3ccc(Oc4ccc(C(F)(F)F)cc4)cc3)no2)c1 [122b] | No activity |
| FC(F)(F)c1ccc(Oc2ccc(-c3noc(-c4cc[nH]n4)n3)cc2)cc1 [102b] | No activity |
| Nc1ccc(-c2nc(-c3ccc(Oc4ccc(C(F)(F)F)cc4)cc3)no2)cc1 [58b] | low MIC values |
| Nc1cc(-c2nc(-c3ccc(Oc4ccc(F)cc4)cc3)no2)ccc1O [92c] | failed to show activity |
| COc1cc(-c2nc(-c3ccc(Oc4ccc(C(F)(F)F)cc4)cc3)no2)ccc1O [93b] | failed to show activity; also recorded: abolish activity |
| Nc1c(F)cc(-c2nc(-c3ccc(Oc4ccccc4)cc3)no2)cc1F [73a] | without significant loss of activity |
| O=P(O)(O)c1ccc(-c2nc(-c3ccc(Oc4ccc(F)cc4)cc3)no2)cc1 [84c] | loss of activity; also recorded: attenuate or abrogate activity |
| COc1cc(-c2nc(-c3ccc(Oc4ccccc4)cc3)no2)ccc1N [94a] | abolish activity |
| Nc1c[nH]nc1-c1nc(-c2ccc(Oc3ccc(C(F)(F)F)cc3)cc2)no1 [64b, 3-(3-(4-(4-(Trifluoromethyl)phenoxy)phenyl)-1,2,4-oxadiazol-5-yl)-1H-pyrazol-4-amine] | tolerated |
| CCCCNc1c[nH]nc1-c1nc(-c2ccc(Oc3ccc(C(F)(F)F)cc3)cc2)no1 [104b] | did not extend |
| O=[N+]([O-])c1c[nH]c(-c2nc(-c3ccc(Oc4ccc(F)cc4)cc3)no2)c1 [78c] | generally abolish antibacterial activity |
| CCn1ccc(-c2nc(-c3ccc(Oc4ccc(F)cc4)cc3)no2)n1 [118c] | No activity |
| Oc1ccc(-c2nc(-c3ccc(Oc4ccc(C(F)(F)F)cc4)cc3)no2)cn1 [120b] | No activity |
| Nc1cncc(-c2nc(-c3ccc(Oc4ccc(F)cc4)cc3)no2)c1 [122c] | No activity |
| NS(=O)(=O)c1ccc(-c2nc(-c3ccc(Oc4ccc(F)cc4)cc3)no2)cc1 [87c] | attenuate or abrogate activity |
| Oc1cc(-c2nc(-c3ccc(Oc4ccccc4)cc3)no2)ccc1I [96a] | failed to show activity |
| FC(F)(F)c1ccc(Oc2ccc(-c3noc(-c4c[nH]c5ncccc45)n3)cc2)cc1 [125b] | No activity |

same assay, conditions: Staphylococcus aureus, ATCC29213|MSSA

| MIC | Molecule |
| --- | --- |
| ≤ 1 µg/mL | Brc1c[nH]nc1-c1nc(-c2ccc(Oc3ccccc3)cc2)no1 [61a] |
